Results on 29 compounds are retold here after patent US7612211B2, “Benzimidazole TRPV1 inhibitors” (Janssen Pharmaceutica N.V., priority 2006, dated 2009).

By IC50 is commonly meant the concentration at which inhibition is half-maximal. For orientation: inhibition means the drop in the measured response relative to a control, in per cent.

In one test the target is T1, hTRPV1 (Homo sapiens, UniProt Q8NER1).
T1 construct: expressed in transfected cells; host or cells: HEK293
The test is described as follows: Human TRPV1 (hTRPV1) functional assay, FLIPR intracellular Ca2+, capsaicin challenge. The class given is cell-based. To be noted: HEK293 cells expressing hTRPV1, capsaicin 0.030 μM challenge; for IC50: derived from a variety of test concentrations, read-out: IC50 value (symbol c); for inhibition at 0.5 µM: test concentration of 0.5 μm, read-out: percent inhibition (symbol a); for inhibition at 0.2 µM: test concentration of 0.2 μm, read-out: percent inhibition (symbol b). In a few lines:
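HEK293 cells expressing the channel, loaded with Calcium 3 dye, were exposed to compounds for 5 min before capsaicin 0.030 μM (~80% maximal). FLIPR Ca2+ read; IC50/EC50 from quadruplicate concentration-response, or percent inhibition at 0.5 μm or 0.2 μm.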

Another test relates to male Sprague-Dawley rats. The experiment in a line: CFA-induced inflammatory pain, reversal of thermal hyperalgesia (radiant heat paw stimulator). The class given is in vivo. The following applies: Rattus norvegicus, po, 10 mg/kg orally, 24 h after CFA, maximal during the 300 min test, read-out: % Reversal (maximal percent reversal of hypersensitivity). Here is the method: Compounds of the present invention were tested in animal models of inflammation and inflammatory pain. To assess the ability of test compounds to reverse thermal hyperalgesia, baseline response latencies on a radiant heat (RH) paw stimulator were obtained before an intraplantar injection of 100 μL (1 μg/μL) CFA (1:1 CFA:saline) in male Sprague-Dawley rats. Only withdrawal responses that were quick hind paw movements (with or without licking of the hind paw) were recorded. Paw movements associated with locomotion or a shifting of weight were not considered a withdrawal response. The stimulus intensity that produced 10-15 sec baseline withdrawal latencies was used and a maximum cutoff of 20 sec was imposed. Hypersensitivity was evaluated 24 h after CFA.
Following the post-inflammogen latency assessment, rats were orally dosed (2.5 mL/kg) with test compound (10 mg/kg) or vehicle (20% hydroxypropyl beta cyclodextran). To determine the time of peak effect, latencies were redetermined 30, 60, 100, 180 and 300 min after compound administration.
Data are presented as the maximal percent reversal of hypersensitivity obtained during the 300 min test, which was calculated for each animal according to the formula: % reversal=100%×(treatment response−post-inflammogen response)/(pre-inflammogen response−post-inflammogen response)

T1 sequence (Q8NER1 whole entry): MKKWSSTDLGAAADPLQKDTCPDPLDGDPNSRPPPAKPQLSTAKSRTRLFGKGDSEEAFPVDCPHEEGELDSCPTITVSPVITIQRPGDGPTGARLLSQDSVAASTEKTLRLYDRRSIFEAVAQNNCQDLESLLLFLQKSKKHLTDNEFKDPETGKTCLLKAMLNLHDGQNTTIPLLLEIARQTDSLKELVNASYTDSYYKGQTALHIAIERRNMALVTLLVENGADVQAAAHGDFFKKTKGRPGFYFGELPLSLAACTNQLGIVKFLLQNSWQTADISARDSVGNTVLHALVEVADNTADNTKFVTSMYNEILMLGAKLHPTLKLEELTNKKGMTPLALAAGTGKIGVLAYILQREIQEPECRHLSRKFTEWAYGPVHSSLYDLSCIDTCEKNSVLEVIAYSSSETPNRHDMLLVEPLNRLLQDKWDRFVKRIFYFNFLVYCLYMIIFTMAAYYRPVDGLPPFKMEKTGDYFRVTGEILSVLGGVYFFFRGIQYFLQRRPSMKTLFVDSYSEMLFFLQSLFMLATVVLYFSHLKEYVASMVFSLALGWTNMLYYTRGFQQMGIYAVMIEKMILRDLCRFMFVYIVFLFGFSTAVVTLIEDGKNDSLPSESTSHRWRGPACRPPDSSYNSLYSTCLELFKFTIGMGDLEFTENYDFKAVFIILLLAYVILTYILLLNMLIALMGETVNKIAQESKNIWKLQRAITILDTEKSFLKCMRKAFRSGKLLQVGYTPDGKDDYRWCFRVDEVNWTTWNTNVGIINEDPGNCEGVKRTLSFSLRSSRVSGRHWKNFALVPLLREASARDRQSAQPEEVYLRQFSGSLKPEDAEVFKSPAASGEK

Regarding `CC(C)(O)c1ccccc1-c1ccc2[nH]c(COc3ccc(C(F)(F)F)cc3)nc2c1` [Cpd 21, 2-{2-[2-(4-trifluoromethyl-phenoxymethyl)-1H-benzoimidazol-5-yl]-phenyl}-propan-2-ol], on hTRPV1, the IC50 came to 14 nM and the inhibition at 0.5 µM stood at 99%. Further, the inhibition in vivo at 10 mg/kg in the test on male Sprague-Dawley rats was 100%. For `NS(=O)(=O)c1ccccc1-c1ccc2[nH]c(COc3ccc(S(=O)(=O)C(F)(F)F)cc3)nc2c1` [Cpd 2, 2-[2-(4-trifluoromethanesulfonyl-phenoxymethyl)-1H-benzoimidazol-5-yl]-benzenesulfonamide], in that order: 10 nM, 99% and 80%. On the same counts, the results for `CNS(=O)(=O)c1ccccc1-c1ccc2[nH]c(COc3ccc(C(F)(F)F)cc3)nc2c1` [Cpd 17, N-methyl-2-[2-(4-trifluoromethyl-phenoxymethyl)-1H-benzoimidazol-5-yl]-benzenesulfonamide] are 1 nM, 100% and 100%. Consider `Cc1ccc(-c2ccc3[nH]c(COc4ccc(C(F)(F)F)cc4)nc3c2)cc1` [Cpd 109, 5-p-tolyl-2-(4-trifluoromethyl-phenoxymethyl)-1H-benzoimidazole], for which the inhibition at 0.5 µM on hTRPV1 amounted to 3%. As to `NS(=O)(=O)c1ccccc1-c1ccc2[nH]c(COc3cc(C(F)(F)F)cc(C(F)(F)F)c3)nc2c1` [Cpd 31, 2-[2-(3,5-bis-trifluoromethyl-phenoxymethyl)-1H-benzoimidazol-5-yl]-benzenesulfonamide], at hTRPV1, the IC50 worked out at 10.6 nM and the inhibition at 0.5 µM is 97%. Take `CS(=O)(=O)c1ccccc1-c1ccc2[nH]c(COc3ccc(F)c(F)c3F)nc2c1` [Cpd 70, 5-(2-methanesulfonyl-phenyl)-2-(2,3,4-trifluoro-phenoxymethyl)-1H-benzoimidazole]: the inhibition at 0.2 µM at hTRPV1 stood at 33%.

Turning to `OCc1ccccc1-c1ccc2[nH]c(COc3ccc(C(F)(F)F)cc3)nc2c1` [Cpd 116, {2-[2-(4-trifluoromethyl-phenoxymethyl)-1H-benzoimidazol-5-yl]-phenyl}-methanol], on hTRPV1, the IC50 was 8.1 nM and the inhibition at 0.5 µM came out at 99%. For the compound `O=S(=O)(CCO)c1ccccc1-c1ccc2[nH]c(COc3ccc(C(F)(F)F)cc3)nc2c1` [Cpd 142, 2-{2-[2-(4-trifluoromethyl-phenoxymethyl)-1H-benzoimidazol-5-yl]-benzenesulfonyl}-ethanol], at hTRPV1, the IC50 is 8 nM and the inhibition at 0.2 µM worked out at 97%. Turning to `CC(=O)Nc1ccc(OCc2nc3cc(-c4ccccc4S(C)(=O)=O)ccc3[nH]2)cc1` [Cpd 95, N-{4-[5-(2-methanesulfonyl-phenyl)-1H-benzoimidazol-2-ylmethoxy]-phenyl}-acetamide], the inhibition at 0.2 µM on hTRPV1 amounted to 1%. The same measure, in the same setting: next, `NS(=O)(=O)c1ccccc1-c1ccc2[nH]c(CNc3ccc(OC(F)(F)F)cc3)nc2c1` [Cpd 48, 2-{2-[(4-trifluoromethoxy-phenylamino)-methyl]-1H-benzoimidazol-5-yl}-benzenesulfonamide]: 41%. In the case of `CS(=O)(=O)c1ccccc1-c1ccc2[nH]c(COc3ccc(S(=O)(=O)C(F)(F)F)cc3)nc2c1` [Cpd 86, 5-(2-methanesulfonyl-phenyl)-2-(4-trifluoromethanesulfonyl-phenoxymethyl)-1H-benzoimidazole], on hTRPV1, the IC50 worked out at 4.9 nM and the inhibition at 0.2 µM is 97%. Moreover, the inhibition in vivo at 10 mg/kg with male Sprague-Dawley rats was 100%. Consider `CS(=O)(=O)c1ccccc1-c1ccc2[nH]c(COc3ccc(C(F)(F)F)cc3)nc2c1` [Cpd 98, 5-(2-methanesulfonyl-phenyl)-2-(4-trifluoromethyl-phenoxymethyl)-1H-benzoimidazole], for which, at hTRPV1, the IC50 turned out to be 2.1 nM and the inhibition at 0.5 µM is 94%. In addition, the inhibition in vivo at 10 mg/kg in the test with male Sprague-Dawley rats came to 30%. For the compound `NS(=O)(=O)c1ccccc1-c1ccc2[nH]c(OCc3ccc(C(F)(F)F)cc3)nc2c1` [Cpd 138, 2-[2-(4-trifluoromethyl-benzyloxy)-1H-benzoimidazol-5-yl]-benzenesulfonamide], the inhibition at 0.5 µM on hTRPV1 is 18%. For the compound `NS(=O)(=O)c1ccccc1-c1ccc2[nH]c(NCc3ccc(C(F)(F)F)cc3)nc2c1` [Cpd 136, 2-[2-(4-trifluoromethyl-benzylamino)-1H-benzoimidazol-5-yl]-benzenesulfonamide], at hTRPV1, the IC50 stood at 68 nM and the inhibition at 0.5 µM amounted to 99%. For `CC(Oc1ccc(C(F)(F)F)cc1)c1nc2cc(-c3ccccc3S(N)(=O)=O)ccc2[nH]1` (stereo not drawn) [Cpd 156, 2-{2-[1-(4-trifluoromethyl-phenoxy)-ethyl]-1H-benzoimidazol-5-yl}-benzenesulfonamide], at hTRPV1, the IC50 is 78 nM and the inhibition at 0.2 µM was determined as 76%. For `CC(C)(C)c1ccc(OCc2nc3cc(-c4ccccc4S(C)(=O)=O)ccc3[nH]2)cc1` [Cpd 78, 2-(4-tert-butyl-phenoxymethyl)-5-(2-methanesulfonyl-phenyl)-1H-benzoimidazole], in that order: 3 nM and 98%. `CC(O)CS(=O)(=O)c1ccccc1-c1ccc2[nH]c(COc3ccc(C(F)(F)F)cc3)nc2c1` (stereo not drawn) [Cpd 160, 1-{2-[2-(4-trifluoromethyl-phenoxymethyl)-1H-benzoimidazol-5-yl]-benzenesulfonyl}-propan-2-ol]: at hTRPV1, the IC50 stood at 12.5 nM and the inhibition at 0.2 µM was 90%. In the case of `NS(=O)(=O)c1ccccc1-c1ccc2[nH]c(COc3ccccc3)nc2c1` [Cpd 26, 2-(2-phenoxymethyl-1H-benzoimidazol-5-yl)-benzenesulfonamide], at hTRPV1, the IC50 was 177 nM and the inhibition at 0.5 µM worked out at 87%. Regarding `CN(C)S(=O)(=O)c1ccccc1-c1ccc2[nH]c(C(F)(F)Oc3ccc(C(F)(F)F)cc3)nc2c1` [Cpd 141, 2-{2-[difluoro-(4-trifluoromethyl-phenoxy)-methyl]-1H-benzoimidazol-5-yl}-N,N-dimethyl-benzenesulfonamide], at hTRPV1, the half-inhibitory concentration (IC50) was determined as 83 nM and the inhibition at 0.5 µM worked out at 99%. As for `CS(=O)(=O)c1ccccc1-c1ccc2[nH]c(COc3cccc(F)c3)nc2c1` [Cpd 55, 2-(3-fluoro-phenoxymethyl)-5-(2-methanesulfonyl-phenyl)-1H-benzoimidazole], the inhibition at 0.2 µM at hTRPV1 worked out at 20%. For the compound `Oc1cccc(-c2ccc3[nH]c(COc4ccc(C(F)(F)F)cc4)nc3c2)c1` [Cpd 120, 3-[2-(4-trifluoromethyl-phenoxymethyl)-1H-benzoimidazol-5-yl]-phenol], the inhibition at 0.5 µM on hTRPV1 turned out to be 15%. On the same count and under the same terms, next, `CC(O)c1cccc(-c2ccc3[nH]c(COc4ccc(C(F)(F)F)cc4)nc3c2)c1` (stereo not drawn) [Cpd 111, 1-{3-[2-(4-trifluoromethyl-phenoxymethyl)-1H-benzoimidazol-5-yl]-phenyl}-ethanol]: 18%.

In the case of `CS(=O)(=O)Nc1ccccc1-c1ccc2[nH]c(COc3ccc(C(F)(F)F)cc3)nc2c1` [Cpd 101, N-{2-[2-(4-trifluoromethyl-phenoxymethyl)-1H-benzoimidazol-5-yl]-phenyl}-methanesulfonamide], on hTRPV1, the IC50 worked out at 10 nM and the inhibition at 0.5 µM came to 94%. Besides, the inhibition in vivo at 10 mg/kg with male Sprague-Dawley rats amounted to 22%. With `NS(=O)(=O)c1c(F)cc(F)cc1-c1ccc2[nH]c(COc3ccc(C(F)(F)F)cc3)nc2c1` [Cpd 135, 2,4-difluoro-6-[2-(4-trifluoromethyl-phenoxymethyl)-1H-benzoimidazol-5-yl]-benzenesulfonamide], on hTRPV1, the IC50 amounted to 47 nM and the inhibition at 0.5 µM is 100%.

Take `Cc1cc(C)cc(OCc2nc3cc(-c4ccccc4S(C)(=O)=O)ccc3[nH]2)c1` [Cpd 90, 2-(3,5-dimethyl-phenoxymethyl)-5-(2-methanesulfonyl-phenyl)-1H-benzoimidazole]: at hTRPV1, the inhibition at 0.2 µM was found to be 31%. Take `NS(=O)(=O)c1ccccc1-c1ccc2[nH]c(COc3cccc(F)c3)nc2c1` [Cpd 4, 2-[2-(3-fluoro-phenoxymethyl)-1H-benzoimidazol-5-yl]-benzenesulfonamide]: the inhibition at 0.5 µM at hTRPV1 amounted to 67%.

Turning to `NS(=O)(=O)c1ccccc1-c1ccc2[nH]c(COc3ccc(OC(F)(F)F)cc3)nc2c1` [Cpd 16, 2-[2-(4-trifluoromethoxy-phenoxymethyl)-1H-benzoimidazol-5-yl]-benzenesulfonamide], on hTRPV1, the IC50 turned out to be 10 nM and the inhibition at 0.5 µM turned out to be 99%. Moreover, the inhibition in vivo at 10 mg/kg in the test with male Sprague-Dawley rats turned out to be 70%. Regarding `CC(O)c1ccccc1-c1ccc2[nH]c(COc3ccc(C(F)(F)F)cc3)nc2c1` (stereo not drawn) [Cpd 143, 1-{2-[2-(4-trifluoromethyl-phenoxymethyl)-1H-benzoimidazol-5-yl]-phenyl}-ethanol], the IC50 on hTRPV1 was determined as 13 nM. Turning to `NS(=O)(=O)c1ccccc1-c1ccc2[nH]c(CSc3ccc(Cl)cc3)nc2c1` [Cpd 42, 2-[2-(4-chloro-phenylsulfanylmethyl)-1H-benzoimidazol-5-yl]-benzenesulfonamide], on hTRPV1, the IC50 worked out at 75 nM and the inhibition at 0.2 µM came out at 93%.
